Data reported in patent publication US20240025862A1, “SUBSTITUTED N-PHENYLURACILS AND SALTS THEREOF, AND USE THEREOF AS HERBICIDAL ACTIVE SUBSTANCES” (Bayer Aktiengesellschaft, priority 2020, published 2024).

How the values were obtained:
Format in all cases: in vivo
[1] = test system: Abutilon theophrasti (ABUTH); experiment: Post-emergence herbicidal action, greenhouse pot test; conditions: rated visually after about 3 weeks vs untreated controls, 100% = plants have died
In short: (§1)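 Greenhouse-grown weeds in sandy loam were sprayed post-emergence at the one-leaf stage, 2–3 weeks after sowing. Compounds were formulated as WP or EC in water with 0.5% additive at 600 l/ha, at rates of 20 g/ha or less. Visual rating after about 3 weeks used a scale from 0% (like untreated control) to 100% (plants dead).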

[2] = test system: Amaranthus retroflexus (AMARE); experiment: as above; conditions: rated visually after about 3 weeks vs untreated controls, 100% = plants have died
In short: as §1

[3] = test system: Pharbitis purpurea (PHBPU); experiment: as above
In short: as §1

[4] = test system: Polygonum convolvulus (POLCO); experiment: as above
In short: as §1

Stellaria media (STEME) = experiment: as above
In short: as §1

Veronica persica (VERPE) = experiment: as above
In short: as §1

Viola tricolor (VIOTR) = experiment: as above
In short: as §1

[5] = test system: Alopecurus myosuroides (ALOMY); experiment: Post-emergence herbicidal action, greenhouse pot test (also comparative test C); conditions: 20 g/ha, rated visually after about 3 weeks vs untreated controls, 100% = plants have died
In short: (§2)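 Greenhouse pot plants in sandy loam were sprayed post-emergence at the one-leaf stage (2–3 weeks after sowing) with WP or EC formulations plus 0.5% additive at 600 l/ha water. Activity was rated visually after about 3 weeks versus untreated controls (100% = dead, 0% = like control); rates were 20 g/ha or less, and 5 g/ha or less in the comparative test.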

[6] = test system: Echinochloa crus-galli (ECHCG); experiment: as above
In short: as §2

[7] = test system: Matricaria inodora (MATIN); experiment: as above
In short: as §2

Setaria viridis (SETVI) = experiment: as above; conditions: for Post-emergence action against SETVI: 20 g/ha
In short: as §2

Brassica napus (BRSNW) = experiment: Post-emergence crop plant compatibility, greenhouse pot test; conditions: for Post-emergence action against BRSNW (crop plant compatibility): 1.25 g/ha, vs untreated controls
In short: (§3)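 Percent crop injury was judged by eye roughly three weeks after treatment, relative to untreated plants, where 100% meant death. Application was a post-emergence spray at the one-leaf stage, 600 l/ha water volume with 0.5% additive; letters a, b, c denote differing dose rates.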

Glycine max (GLXMA) = experiment: as above
In short: as §3

[8] = test system: Triticum aestivum (TRZAS); experiment: as above; conditions: vs untreated controls
In short: as §3

Oryza sativa (ORYSA) = experiment: Post-emergence crop plant compatibility, greenhouse pot test (also comparative test C); conditions: vs untreated controls
In short: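 Rice and other crops sprayed post-emergence at one-leaf stage (2–3 weeks after sowing) with WP or EC formulations plus 0.5% additive at 600 l/ha water. Visual rating about 3 weeks later versus untreated controls (100% = dead, 0% = like control); suffixes a–c denote different doses.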

Compound | Post-emergence action at 5 g/ha against ABUTH in % [1] [%] | Post-emergence action at 20 g/ha against ABUTH in % [1] [%] | Post-emergence action at 1.25 g/ha against AMARE in % [2] [%] | Post-emergence action at 5 g/ha against AMARE in % [2] [%] | Post-emergence action at 20 g/ha against AMARE in % [2] [%] | Post-emergence action against PHBPU in % ([3]; dosage 1.25 g/ha) [%] | Post-emergence action against PHBPU in % ([3]; dosage 5 g/ha) [%] | Post-emergence action against PHBPU in % ([3]; dosage 20 g/ha) [%] | Post-emergence action against POLCO in % ([4]; dosage 5 g/ha) [%] | Post-emergence action against POLCO in % ([4]; dosage 20 g/ha) [%] | Post-emergence action against STEME (Stellaria media (STEME); 5 g/ha) [%] | Post-emergence action against STEME (Stellaria media (STEME); 20 g/ha) [%] | Post-emergence action against VERPE (Veronica persica (VERPE); 1.25 g/ha) [%] | Post-emergence action against VERPE (Veronica persica (VERPE); 5 g/ha) [%] | Post-emergence action against VERPE (Veronica persica (VERPE); 20 g/ha) [%] | Post-emergence action against VIOTR (Viola tricolor (VIOTR); 5 g/ha) [%] | Post-emergence action against VIOTR (Viola tricolor (VIOTR); 20 g/ha) [%] | Post-emergence action at 20 g/ha against ALOMY in % [5] [%] | Post-emergence action against ECHCG in % ([6]; dosage 20 g/ha) [%] | Post-emergence action against MATIN in % ([7]; dosage 5 g/ha) [%] | other results
COCCOCCOC(=O)C(C)Oc1ccccc1Sc1cc(-n2c(=O)cc(C(F)(F)F)n(C)c2=O)c(F)cc1Cl (racemic) [I.2-23] | 100 | 100 | 80 | 100 | 100 | 100 | 100 | 100 | 100 | 100 | 100 | 100 | 80 | 100 | 100 | 100 | 100 | 80 | 100 | 80 | Post-emergence action at 1.25 g/ha against ABUTH in % ([1]; 1.25 g/ha): 100%; Post-emergence action against ECHCG in % ([6]; dosage 5 g/ha): 100%; Post-emergence action against MATIN in % ([7]; dosage 20 g/ha): 100%; Post-emergence action against SETVI (Setaria viridis (SETVI)): 100%; Post-emergence action against SETVI in % (Setaria viridis (SETVI); dosage 5 g/ha): 100%; Post-emergence action against BRSNW (crop plant compatibility) (Brassica napus (BRSNW)): 20%; Post-emergence action at 5 g/ha against BRSNW in % (Brassica napus (BRSNW); 5 g/ha, crop plant compatibility, observed effects on crop plant in comparison to untreated controls): 20%; Post-emergence action against GLXMA in % (Glycine max (GLXMA); 1.25 g/ha): 0%; Post-emergence action against GLXMA in % (Glycine max (GLXMA); 5 g/ha): 10%; Post-emergence action against GLXMA in % (Glycine max (GLXMA); 20 g/ha): 20%; Post-emergence action against TRZAS (crop plant compatibility) ([8]; 1.25 g/ha): 20%; Post-emergence action against ORYSA (crop plant compatibility) (Oryza sativa (ORYSA); 1.25 g/ha): 10%; Post-emergence action against ORYSA (crop plant compatibility) (Oryza sativa (ORYSA); 5 g/ha): 10%
CC(Oc1ccccc1Sc1cc(-n2c(=O)cc(C(F)(F)F)n(C)c2=O)c(F)cc1Cl)C(=O)OCC1CCCO1 (mixture of isomers) [I.2-71] | 100 | 100 | 100 | 100 | 100 | 80 | 100 | 100 | 100 | 100 | 100 | 100 | 100 | 100 | 100 | 100 | 100 | 80 | 80 | 80 | Post-emergence action against VIOTR (Viola tricolor (VIOTR); 1.25 g/ha): 100%; Post-emergence action against MATIN in % ([7]; dosage 20 g/ha): 90%; Post-emergence action against SETVI (Setaria viridis (SETVI)): 100%; Post-emergence action against SETVI in % (Setaria viridis (SETVI); dosage 1.25 g/ha): 90%; Post-emergence action against SETVI in % (Setaria viridis (SETVI); dosage 5 g/ha): 100%; Post-emergence action against BRSNW (crop plant compatibility) (Brassica napus (BRSNW)): 10%; Post-emergence action against GLXMA in % (Glycine max (GLXMA); 1.25 g/ha): 10%; Post-emergence action against TRZAS (crop plant compatibility) ([8]; 1.25 g/ha): 20%; Post-emergence action against TRZAS (crop plant compatibility) ([8]; 5 g/ha): 20%; Post-emergence action against ORYSA (crop plant compatibility) (Oryza sativa (ORYSA); 1.25 g/ha): 20%; Post-emergence action against ORYSA (crop plant compatibility) (Oryza sativa (ORYSA); 5 g/ha): 20%
